In ChEMBL document CHEMBL1201862, “PubChem BioAssay data set” (2004):
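Tested at 5 concentrations; 48 h exposure; 96-well plates; endpoints linearly interpolated, else capped at highest concentration. Abbreviation: GI50, concentration required for 50% inhibition of growth.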 Calls of active or inactive are those of the source. Rule as the data show it: active = GI50 up to about 1.1 µM and inactive = higher.

Experiments:
Assay in all cases: NCI-60 cell line screen, 48 h
OVCAR-3 = tested on: OVCAR-3
CCRF-CEM = tested on: CCRF-CEM
COLO 205 = tested on: COLO 205
NCI-H23 = tested on: NCI-H23
SF-295 = tested on: SF-295
KM12 = tested on: KM12
ACHN = tested on: ACHN
HOP-18 = tested on: HOP-18
NCI-H522 = tested on: NCI-H522
TK-10 = tested on: TK-10
M19-MEL = tested on: M19-MEL
HOP-92 = tested on: HOP-92
HOP-62 = tested on: HOP-62
SW-620 = tested on: SW-620
NCI-H460 = tested on: NCI-H460
SK-MEL-28 = tested on: SK-MEL-28
DLD-1 = tested on: DLD-1
SNB-75 = tested on: SNB-75
HT-29 = tested on: HT-29
A498 = tested on: A498
MOLT-4 = tested on: MOLT-4
SNB-19 = tested on: SNB-19
NCI-H226 = tested on: NCI-H226
UACC-62 = tested on: UACC-62
SF-268 = tested on: SF-268
U-251 = tested on: U-251
UACC-257 = tested on: UACC-257
RPMI-8226 = tested on: RPMI-8226
HCC 2998 = tested on: HCC 2998
SK-MEL-5 = tested on: SK-MEL-5
HL-60 = tested on: HL-60
IGROV-1 = tested on: IGROV-1
SK-OV-3 = tested on: SK-OV-3
A549 = tested on: A549
OVCAR-8 = tested on: OVCAR-8
HCT-116 = tested on: HCT-116
UO-31 = tested on: UO-31
LXFL 529 = tested on: LXFL 529
K562 = tested on: K562
OVCAR-5 = tested on: OVCAR-5
SF-539 = tested on: SF-539
OVCAR-4 = tested on: OVCAR-4
DMS-114 = tested on: DMS-114
DMS-273 = tested on: DMS-273
HCT-15 = tested on: HCT-15
SN12C = tested on: SN12C
KM-20L2 = tested on: KM-20L2
SK-MEL-2 = tested on: SK-MEL-2
EKVX = tested on: EKVX
SNB-78 = tested on: SNB-78
Malme-3M = tested on: Malme-3M
M14 = tested on: M14
CAKI-1 = tested on: CAKI-1
SR = tested on: SR
RXF 393 = tested on: RXF 393
786-0 = tested on: 786-0
LOX IMVI = tested on: LOX IMVI

In the case of `Cc1ccc(N2C(=O)/C(=C3\SC(C(N)=O)=C(N)N3c3ccccc3)SC2=S)cc1`, the GI50 (OVCAR-3) is reported as 90.2 µM (inactive), the GI50 (CCRF-CEM) is reported as > 100 µM (inactive) and the GI50 (COLO 205) is reported as > 100 µM (inactive). For the same compound, the GI50 (NCI-H23) was 51.1 µM (inactive), the GI50 (SF-295) was 24.9 µM (inactive) and the GI50 (KM12) was > 100 µM (inactive). For the same compound, the GI50 (ACHN) was 66.1 µM (inactive), the GI50 (HOP-18) was 37.7 µM (inactive) and the GI50 (NCI-H522) was 27.7 µM (inactive). For the same compound, the GI50 (TK-10) was > 100 µM (inactive), the GI50 (M19-MEL) was > 100 µM (inactive) and the GI50 (HOP-92) was 12.1 µM (inactive). The GI50 (HOP-62) was 25.8 µM (inactive), the GI50 (SW-620) was > 100 µM (inactive) and the GI50 (NCI-H460) was > 100 µM (inactive). For the same compound, the GI50 (SK-MEL-28) was > 100 µM (inactive), the GI50 (DLD-1) was 90.8 µM (inactive) and the GI50 (SNB-75) was 7.91 µM (inactive). The GI50 (HT-29) was 44.3 µM (inactive), the GI50 (A498) was 4.73 µM (inactive) and the GI50 (MOLT-4) was > 100 µM (inactive). For the same compound, the GI50 (SNB-19) was 57.5 µM (inactive), the GI50 (NCI-H226) was 37.3 µM (inactive) and the GI50 (UACC-62) was > 100 µM (inactive). The GI50 (SF-268) was 15.7 µM (inactive), the GI50 (U-251) was 71.6 µM (inactive) and the GI50 (UACC-257) was > 100 µM (inactive). The GI50 (RPMI-8226) was 72.4 µM (inactive), the GI50 (HCC 2998) was > 100 µM (inactive) and the GI50 (SK-MEL-5) was > 100 µM (inactive). The GI50 (HL-60) was > 100 µM (inactive), the GI50 (IGROV-1) was > 100 µM (inactive) and the GI50 (SK-OV-3) was 28.2 µM (inactive). The GI50 (A549) was > 100 µM (inactive), the GI50 (OVCAR-8) was 46 µM (inactive) and the GI50 (HCT-116) was 71 µM (inactive). The GI50 (UO-31) was > 100 µM (inactive), the GI50 (LXFL 529) was > 100 µM (inactive) and the GI50 (K562) was 78.7 µM (inactive). For the same compound, the GI50 (OVCAR-5) was 2.21 µM (inactive) and the GI50 (SF-539) was 22.8 µM (inactive).

In the case of `CC1=COC(=O)c2ccccc2N1`, the GI50 (OVCAR-3) is reported as > 100 µM (inactive), the GI50 (CCRF-CEM) is reported as > 100 µM (inactive) and the GI50 (COLO 205) is reported as > 100 µM (inactive). For the same compound, the GI50 (OVCAR-4) was > 100 µM (inactive), the GI50 (NCI-H23) was > 100 µM (inactive) and the GI50 (SF-295) was > 100 µM (inactive). For the same compound, the GI50 (KM12) was > 100 µM (inactive), the GI50 (DMS-114) was > 100 µM (inactive) and the GI50 (ACHN) was > 100 µM (inactive). For the same compound, the GI50 (NCI-H522) was > 100 µM (inactive), the GI50 (DMS-273) was > 100 µM (inactive) and the GI50 (TK-10) was > 100 µM (inactive). For the same compound, the GI50 (M19-MEL) was > 100 µM (inactive), the GI50 (HCT-15) was > 100 µM and the GI50 (HOP-92) was > 100 µM (inactive). The GI50 (SN12C) was > 100 µM (inactive), the GI50 (HOP-62) was > 100 µM (inactive) and the GI50 (SW-620) was > 100 µM (inactive). The GI50 (NCI-H460) was > 100 µM (inactive), the GI50 (KM-20L2) was > 100 µM (inactive) and the GI50 (SK-MEL-28) was > 100 µM (inactive). The GI50 (DLD-1) was > 100 µM (inactive), the GI50 (SK-MEL-2) was > 100 µM (inactive) and the GI50 (SNB-75) was > 100 µM (inactive). For the same compound, the GI50 (HT-29) was > 100 µM (inactive), the GI50 (SNB-19) was > 100 µM (inactive) and the GI50 (NCI-H226) was > 100 µM (inactive). The GI50 (UACC-62) was > 100 µM (inactive), the GI50 (EKVX) was > 100 µM (inactive) and the GI50 (SF-268) was > 100 µM (inactive). For the same compound, the GI50 (U-251) was > 100 µM (inactive), the GI50 (SNB-78) was > 100 µM (inactive) and the GI50 (RPMI-8226) was > 100 µM (inactive). The GI50 (HCC 2998) was > 100 µM (inactive), the GI50 (SK-MEL-5) was > 100 µM (inactive) and the GI50 (HL-60) was > 100 µM (inactive). The GI50 (Malme-3M) was > 100 µM (inactive), the GI50 (M14) was > 100 µM (inactive) and the GI50 (CAKI-1) was > 100 µM (inactive). For the same compound, the GI50 (IGROV-1) was > 100 µM (inactive), the GI50 (SK-OV-3) was > 100 µM (inactive) and the GI50 (SR) was > 100 µM (inactive). For the same compound, the GI50 (RXF 393) was > 100 µM (inactive), the GI50 (A549) was > 100 µM (inactive) and the GI50 (OVCAR-8) was > 100 µM (inactive). For the same compound, the GI50 (HCT-116) was > 100 µM (inactive), the GI50 (UO-31) was > 100 µM (inactive) and the GI50 (LXFL 529) was > 100 µM (inactive). The GI50 (786-0) was > 100 µM (inactive), the GI50 (K562) was > 100 µM (inactive) and the GI50 (OVCAR-5) was > 100 µM (inactive). For the same compound, the GI50 (LOX IMVI) was > 100 µM (inactive) and the GI50 (SF-539) was > 100 µM (inactive).

`CCOC(=O)CNC(=O)C(CSC(=O)N(C)O)NC(=O)CCC(N)C(=O)O` (stereo unspecified) was tested, and the GI50 (CCRF-CEM) was 1.02 µM (active), the GI50 (COLO 205) was 0.735 µM (active) and the GI50 (DMS-114) was 0.968 µM (active). For the same compound, the GI50 (ACHN) was 653 µM (inactive), the GI50 (HOP-18) was 462 µM (inactive) and the GI50 (DMS-273) was 0.75 µM (active). For the same compound, the GI50 (TK-10) was 655 µM (inactive), the GI50 (HCT-15) was > 1000 µM and the GI50 (HOP-92) was 348 µM (inactive). The GI50 (SW-620) was > 1000 µM (inactive), the GI50 (SK-MEL-28) was 927 µM (inactive) and the GI50 (DLD-1) was 0.656 µM (active). The GI50 (SK-MEL-2) was 378 µM (inactive), the GI50 (HT-29) was 0.891 µM (active) and the GI50 (RPMI-8226) was 908 µM (inactive). For the same compound, the GI50 (HL-60) was 659 µM (inactive), the GI50 (SK-OV-3) was 684 µM (inactive) and the GI50 (SR) was 0.644 µM (active). The GI50 (RXF 393) was 498 µM (inactive), the GI50 (HCT-116) was 1.75 µM (inactive) and the GI50 (OVCAR-5) was 436 µM (inactive). The GI50 (LOX IMVI) was 0.658 µM (active).

For `Cc1c2cc[n+](C)cc2c(C)c2c1[nH]c1ccc(OC(C)C)cc12`, the GI50 (OVCAR-3) was 3.1 µM (inactive), the GI50 (COLO 205) was 1.39 µM (inactive) and the GI50 (OVCAR-4) was 3.85 µM (inactive). The GI50 (NCI-H23) was 2.51 µM (inactive), the GI50 (KM12) was 2.75 µM (inactive) and the GI50 (ACHN) was 16.1 µM (inactive). For the same compound, the GI50 (HOP-18) was 3.75 µM (inactive), the GI50 (NCI-H522) was 1.98 µM (inactive) and the GI50 (DMS-273) was 2.69 µM (inactive). For the same compound, the GI50 (TK-10) was 39.3 µM (inactive), the GI50 (M19-MEL) was 2.09 µM (inactive) and the GI50 (HCT-15) was > 58.2 µM. The GI50 (HOP-92) was 3.01 µM (inactive), the GI50 (SN12C) was 0.542 µM (active) and the GI50 (SW-620) was 3.12 µM (inactive). For the same compound, the GI50 (NCI-H460) was 2.6 µM (inactive), the GI50 (KM-20L2) was 4.72 µM (inactive) and the GI50 (SK-MEL-28) was 4.42 µM (inactive). For the same compound, the GI50 (SK-MEL-2) was 2.56 µM (inactive), the GI50 (SNB-75) was 0.384 µM (active) and the GI50 (HT-29) was 4.25 µM (inactive). For the same compound, the GI50 (A498) was 12 µM (inactive), the GI50 (MOLT-4) was 5.18 µM (inactive) and the GI50 (UACC-62) was 2.71 µM (inactive). For the same compound, the GI50 (EKVX) was 5.06 µM (inactive), the GI50 (SF-268) was 0.418 µM (active) and the GI50 (UACC-257) was 2.82 µM (inactive). The GI50 (RPMI-8226) was 7.74 µM (inactive), the GI50 (SK-MEL-5) was 1.48 µM (inactive) and the GI50 (HL-60) was 2.43 µM (inactive). For the same compound, the GI50 (Malme-3M) was 1.97 µM (inactive), the GI50 (M14) was 10.4 µM (inactive) and the GI50 (IGROV-1) was 2.55 µM (inactive). For the same compound, the GI50 (A549) was 3.44 µM (inactive), the GI50 (HCT-116) was 3.77 µM (inactive) and the GI50 (UO-31) was 27.3 µM (inactive). For the same compound, the GI50 (LXFL 529) was 0.875 µM (active), the GI50 (OVCAR-5) was 12.9 µM (inactive) and the GI50 (LOX IMVI) was 6.95 µM (inactive). The GI50 (SF-539) was 1.01 µM (active).
